Tested on: gastric mucosa of rat
Assay: Test for investigating irritation of gastric mucosa in rat
Assay type: in vivo, Wistar rats
Details: oral after fasting 18 hrs, dose 2 g/kg BW, stomach observed 1 hour after administration
Experimental: Five male 10-week old Wistar rats having a body weight of about 200 g (Japan SLC, Inc.) as one test group were subjected to tests by administration. […] The amount of the triglyceride administered was 2 g per kg of body weight. After placing at rest for 1 hour following the administration, an incision was made in the abdomen under anesthesia, and the stomach was extirpated. Then, the extirpated stomach was incised along the greater curvature, and the gastric mucosa was washed with physiological saline and visually observed, with use of a loupe as needed. It should be noted that evaluation in connection with the irritation of gastric mucosa was made in accordance with a method described in a document (Yakugaku Zasshi 89 (8): 1114-1118, 1978). The criteria of evaluation are shown below.
(−): Nine or less areas of patchy redness found.
(+): Ten or more areas of patchy redness found, and sum total of each length of erosion being no greater than 2 mm.
(++): Twenty or more areas of patchy redness found, and sum total of each length of erosion being no greater than 10 mm.
(+++): Sum total of each length of ulcer, or erosion being no less than 10 mm.
It is to be noted that when evaluation was made as (−), the number of areas of patchy redness was counted.

## CCO [Positive Control Group, ethanol]
  Irritation of gastric mucosa: (+++) (Sum total of each length of ulcer, or erosion being no less than 10 mm.)

— patent publication US10383838B2, “Concentrated liquid diet” (The Nisshin OilliO Group, Ltd., priority 2008, dated 2019)
